This assay concerns the target recombinant human SAE enzyme (Homo sapiens (Human), UniProt Q9UBT2). As to the kind of experiment: SAE HTRF enzyme assay. The class given is biochemical. The settings on record: for Percent Inhibition: Concentration 0.111 μM; for IC50: class symbols A/B/C. In outline:
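Sumoylation of Ubc9-GST by SAE was followed at low ATP (0.5 μM), pH 7.5, 24° C. for 105 min. Product was detected by HTRF with antibody pairs against Flag and GST tags.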
Background: Time-resolved FRET reads energy transfer from a long-lived donor to a nearby acceptor.

Some results are limits rather than exact numbers.

Results on ten compounds are retold here after patent US10780090B2, “Heteroaryl compounds useful as inhibitors of SUMO activating enzyme” (Millennium Pharmaceuticals, Inc., priority 2014, dated 2020).

For orientation: IC50 means the midpoint of a concentration-inhibition curve.

Chain of recombinant human SAE enzyme (Q9UBT2 whole entry): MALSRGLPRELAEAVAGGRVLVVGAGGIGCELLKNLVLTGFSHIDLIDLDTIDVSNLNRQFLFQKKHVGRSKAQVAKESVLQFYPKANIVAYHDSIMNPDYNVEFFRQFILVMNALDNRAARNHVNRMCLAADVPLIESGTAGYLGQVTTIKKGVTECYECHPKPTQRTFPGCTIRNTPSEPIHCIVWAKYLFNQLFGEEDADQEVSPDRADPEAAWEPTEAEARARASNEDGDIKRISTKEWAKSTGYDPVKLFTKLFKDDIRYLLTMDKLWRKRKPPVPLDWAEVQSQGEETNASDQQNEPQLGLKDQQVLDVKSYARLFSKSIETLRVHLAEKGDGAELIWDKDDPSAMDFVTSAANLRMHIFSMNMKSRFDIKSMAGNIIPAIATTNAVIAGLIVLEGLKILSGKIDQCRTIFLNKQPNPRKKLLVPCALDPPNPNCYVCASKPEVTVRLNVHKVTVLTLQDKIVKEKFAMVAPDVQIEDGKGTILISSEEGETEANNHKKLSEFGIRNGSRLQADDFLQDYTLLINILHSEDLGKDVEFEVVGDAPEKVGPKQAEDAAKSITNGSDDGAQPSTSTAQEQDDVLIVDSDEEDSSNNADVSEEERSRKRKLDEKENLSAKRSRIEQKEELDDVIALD
Chain of recombinant human SAE enzyme (Q9UBE0 whole entry partner): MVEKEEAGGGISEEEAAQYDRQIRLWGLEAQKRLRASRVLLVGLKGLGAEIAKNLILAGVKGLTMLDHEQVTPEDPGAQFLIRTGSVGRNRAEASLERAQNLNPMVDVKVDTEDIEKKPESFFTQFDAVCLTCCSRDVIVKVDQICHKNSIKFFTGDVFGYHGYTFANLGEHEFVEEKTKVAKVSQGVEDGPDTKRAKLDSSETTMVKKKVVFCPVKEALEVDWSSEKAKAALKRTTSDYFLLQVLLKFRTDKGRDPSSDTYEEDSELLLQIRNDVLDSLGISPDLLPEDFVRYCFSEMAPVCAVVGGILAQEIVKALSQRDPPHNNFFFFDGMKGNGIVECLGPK

As for `NS(=O)(=O)OC[C@H]1C[C@@H](Nc2ncncc2C(=O)c2cc([C@@H](O)c3cccc(Br)c3)c(Cl)s2)C[C@@H]1O` (single isomer, unassigned) [I-16b, 1R,2S,4R)-4-{[5-({4-[(S)-(3-Bromophenyl)(hydroxy)methyl]-5-chloro-2-thienyl}carbonyl)pyrimidin-4-yl]amino}-2-hydroxycyclopentyl]methyl sulfamate or [(1R,2S,4R)-4-{[5-({4-[(R)-(3-Bromophenyl)(hydroxy)methyl]-5-chloro-2-thienyl}carbonyl)pyrimidin-4-yl]amino}-2-hydroxycyclopentyl]methyl sulfamate], the “Percent Inhibition” value is 98 and the IC50 is < 10 nM.
In the case of `N[C@@H](c1cccc(Br)n1)c1cc(C(=O)c2cncnc2N[C@@H]2C[C@H](COS(N)(=O)=O)[C@@H](O)C2)sc1Cl` (single isomer, unassigned) [I-18a, [(1R,2S,4R)-4-{[5-({4-[(R)-amino(6-bromopyridin-2-yl)methyl]-5-chloro-2-thienyl}carbonyl)pyrimidin-4-yl]amino}-2-hydroxycyclopentyl]methyl sulfamate or [(1R,2S,4R)-4-{[5-({4-[(S)-amino(6-bromopyridin-2-yl)methyl]-5-chloro-2-thienyl}carbonyl)pyrimidin-4-yl]amino}-2-hydroxycyclopentyl]methyl sulfamate], the “Percent Inhibition” value is 82 and the IC50 lay within 10 to 100 nM.
As for `N[C@@H](c1cccc(Br)n1)c1cc(C(=O)c2cncnc2N[C@@H]2C[C@H](COS(N)(=O)=O)[C@@H](O)C2)sc1Cl` (single isomer, unassigned) [I-18b, [(1R,2S,4R)-4-{[5-({4-[(R)-amino(6-bromopyridin-2-yl)methyl]-5-chloro-2-thienyl}carbonyl)pyrimidin-4-yl]amino}-2-hydroxycyclopentyl]methyl sulfamate or [(1R,2S,4R)-4-{[5-({4-[(S)-amino(6-bromopyridin-2-yl)methyl]-5-chloro-2-thienyl}carbonyl)pyrimidin-4-yl]amino}-2-hydroxycyclopentyl]methyl sulfamate], the “Percent Inhibition” value worked out at 99 and the IC50 was < 10 nM.
For `NS(=O)(=O)OC[C@H]1C[C@@H](Nc2ncncc2C(=O)c2cc([C@H](O)c3cc(Br)ccc3F)cs2)C[C@@H]1O` (single isomer, unassigned) [I-19a, [(1R,2S,4R)-4-{[5-({4-[(R)-(5-bromo-2-fluorophenyl)(hydroxy)methyl]-2-thienyl}carbonyl)pyrimidin-4-yl]amino}-2-hydroxycyclopentyl]methyl sulfamate or [(1R,2S,4R)-4-{[5-({4-[(S)-(5-bromo-2-fluorophenyl)(hydroxy)methyl]-2-thienyl}carbonyl)pyrimidin-4-yl]amino}-2-hydroxycyclopentyl]methyl sulfamate], in that order: 98 and < 10 nM.
The matching figures for `NS(=O)(=O)OC[C@H]1C[C@@H](Nc2ncncc2C(=O)c2cc([C@H](O)c3cc(Br)ccc3F)cs2)C[C@@H]1O` (single isomer, unassigned) [I-19b, [(1R,2S,4R)-4-{[5-({4-[(R)-(5-bromo-2-fluorophenyl)(hydroxy)methyl]-2-thienyl}carbonyl)pyrimidin-4-yl]amino}-2-hydroxycyclopentyl]methyl sulfamate or [(1R,2S,4R)-4-{[5-({4-[(S)-(5-bromo-2-fluorophenyl)(hydroxy)methyl]-2-thienyl}carbonyl)pyrimidin-4-yl]amino}-2-hydroxycyclopentyl]methyl sulfamate]: 99 and < 10 nM.
For `NS(=O)(=O)OC[C@H]1C[C@@H](Nc2ncncc2C(=O)c2cc(C3(c4cccc(Cl)c4)CCCO3)cs2)C[C@@H]1O` (single isomer, unassigned) [I-20a, [(1R,2S,4R)-4-{[5-({4-[(2S)-2-(3-chlorophenyl)tetrahydrofuran-2-yl]-2-thienyl}carbonyl)pyrimidin-4-yl]amino}-2-hydroxycyclopentyl]methyl sulfamate or [(1R,2S,4R)-4-{[5-({4-[(2R)-2-(3-chlorophenyl)tetrahydrofuran-2-yl]-2-thienyl}carbonyl)pyrimidin-4-yl]amino}-2-hydroxycyclopentyl]methyl sulfamate], in that order: 81 and 10 to 100 nM.
Regarding `NS(=O)(=O)OC[C@H]1C[C@@H](Nc2ncncc2C(=O)c2cc(C3(c4cccc(Cl)c4)CCCO3)cs2)C[C@@H]1O` (single isomer, unassigned) [I-20b, [(1R,2S,4R)-4-{[5-({4-[(2S)-2-(3-chlorophenyl)tetrahydrofuran-2-yl]-2-thienyl}carbonyl)pyrimidin-4-yl]amino}-2-hydroxycyclopentyl]methyl sulfamate or [(1R,2S,4R)-4-{[5-({4-[(2R)-2-(3-chlorophenyl)tetrahydrofuran-2-yl]-2-thienyl}carbonyl)pyrimidin-4-yl]amino}-2-hydroxycyclopentyl]methyl sulfamate], the “Percent Inhibition” value amounted to 99 and the IC50 was < 10 nM.
The matching figures for `N[C@H](c1cccc(Br)c1)c1cc(C(=O)c2cncnc2N[C@@H]2C[C@H](COS(N)(=O)=O)[C@@H](O)C2)sc1Cl` (single isomer, unassigned) [I-22a, [(1R,2S,4R)-4-{[5-({4-[(R)-amino(3-bromophenyl)methyl]-5-chloro-2-thienyl}carbonyl)pyrimidin-4-yl]amino}-2-hydroxycyclopentyl]methyl sulfamate or [(1R,2S,4R)-4-{[5-({4-[(S)-amino(3-bromophenyl)methyl]-5-chloro-2-thienyl}carbonyl)pyrimidin-4-yl]amino}-2-hydroxycyclopentyl]methyl sulfamate]: 83 and 10 to 100 nM.
Consider `N[C@H](c1cccc(Br)c1)c1cc(C(=O)c2cncnc2N[C@@H]2C[C@H](COS(N)(=O)=O)[C@@H](O)C2)sc1Cl` (single isomer, unassigned) [I-22b, [(1R,2S,4R)-4-{[5-({4-[(R)-amino(3-bromophenyl)methyl]-5-chloro-2-thienyl}carbonyl)pyrimidin-4-yl]amino}-2-hydroxycyclopentyl]methyl sulfamate or [(1R,2S,4R)-4-{[5-({4-[(S)-amino(3-bromophenyl)methyl]-5-chloro-2-thienyl}carbonyl)pyrimidin-4-yl]amino}-2-hydroxycyclopentyl]methyl sulfamate], for which the “Percent Inhibition” value is 99 and the half-inhibitory concentration (IC50) is < 10 nM.
Turning to `N[C@H](c1cccc(Br)c1)c1cc(C(=O)c2cncnc2N[C@@H]2C[C@H](COS(N)(=O)=O)[C@@H](O)[C@H]2O)sc1Cl` (single isomer, unassigned) [I-24a, [(1R,2R,3S,4R)-4-{[5-({4-[(R)-amino(3-bromophenyl)methyl]-5-chloro-2-thienyl}carbonyl)pyrimidin-4-yl]amino}-2,3-dihydroxycyclopentyl]methyl sulfamate or [(1R,2R,3S,4R)-4-{[5-({4-[(S)-amino(3-bromophenyl)methyl]-5-chloro-2-thienyl}carbonyl)pyrimidin-4-yl]amino}-2,3-dihydroxycyclopentyl]methyl sulfamate], the “Percent Inhibition” value came to 101 and the half-maximal inhibitory concentration (IC50) is < 10 nM.
